Like-named read-outs stand apart in the source and are kept apart here.
Legend:
Format in all cases: binding
[1] = molecular target: broad panel of kinases (Homo sapiens, UniProt O14730); conditions: RIOK3; 1 μM
[2] = molecular target: broad panel of kinases (Homo sapiens, UniProt Q9H2G2); conditions: SLK; 1 μM
[3] = molecular target: broad panel of kinases (Homo sapiens, UniProt P48736); conditions: PIK3CG; 1 μM
[4] = molecular target: broad panel of kinases (Homo sapiens, UniProt Q9H093); conditions: SNARK; 1 μM
[5] = molecular target: broad panel of kinases (Homo sapiens, UniProt Q5S007, G2019S); conditions: LRRK2(G2019S); 1 μM
[6] = molecular target: broad panel of kinases (Homo sapiens, UniProt Q9P0L2); conditions: MARK1; 1 μM
[7] = molecular target: broad panel of kinases (Homo sapiens, UniProt P42680); conditions: TEC; 1 μM
[8] = molecular target: broad panel of kinases (Homo sapiens, UniProt P16234); conditions: PDGFRA; 1 μM
Sequence of broad panel of kinases (Homo sapiens, UniProt P16234) (P16234 24-1089 limits assumed): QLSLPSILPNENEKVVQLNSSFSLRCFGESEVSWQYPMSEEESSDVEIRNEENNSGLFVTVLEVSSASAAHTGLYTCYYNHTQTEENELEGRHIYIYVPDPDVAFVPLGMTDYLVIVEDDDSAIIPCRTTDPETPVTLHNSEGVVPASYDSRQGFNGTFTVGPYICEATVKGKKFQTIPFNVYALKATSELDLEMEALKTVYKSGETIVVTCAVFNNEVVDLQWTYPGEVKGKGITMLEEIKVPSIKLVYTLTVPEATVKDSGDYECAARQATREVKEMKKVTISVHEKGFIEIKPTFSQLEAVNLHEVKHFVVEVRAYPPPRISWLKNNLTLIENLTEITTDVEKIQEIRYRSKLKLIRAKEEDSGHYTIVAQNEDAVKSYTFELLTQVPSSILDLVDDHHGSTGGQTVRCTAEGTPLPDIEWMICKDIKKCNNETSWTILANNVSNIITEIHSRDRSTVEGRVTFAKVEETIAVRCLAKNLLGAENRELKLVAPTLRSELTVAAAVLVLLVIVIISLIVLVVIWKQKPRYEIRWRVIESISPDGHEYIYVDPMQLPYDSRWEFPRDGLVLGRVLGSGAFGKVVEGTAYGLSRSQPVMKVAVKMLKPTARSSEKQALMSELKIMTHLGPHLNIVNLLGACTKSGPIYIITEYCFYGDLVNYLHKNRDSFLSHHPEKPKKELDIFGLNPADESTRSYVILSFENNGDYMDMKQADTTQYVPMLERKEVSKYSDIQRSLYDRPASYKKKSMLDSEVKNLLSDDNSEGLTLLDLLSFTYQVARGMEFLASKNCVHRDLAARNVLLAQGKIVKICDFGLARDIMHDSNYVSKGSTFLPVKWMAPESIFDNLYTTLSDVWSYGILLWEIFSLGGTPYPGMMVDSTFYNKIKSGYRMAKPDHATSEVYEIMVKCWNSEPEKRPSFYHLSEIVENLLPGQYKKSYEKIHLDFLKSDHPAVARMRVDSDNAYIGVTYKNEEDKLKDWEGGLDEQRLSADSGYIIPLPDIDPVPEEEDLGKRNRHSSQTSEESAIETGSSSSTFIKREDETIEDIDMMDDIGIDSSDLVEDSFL

[9] = molecular target: broad panel of kinases (Homo sapiens, UniProt P54762); conditions: EPHB1; 1 μM
[10] = molecular target: broad panel of kinases (Homo sapiens, UniProt P11362); conditions: FGFR1; 1 μM
[11] = molecular target: broad panel of kinases (Homo sapiens, UniProt P08069); conditions: IGF1R; 1 μM
Sequence of broad panel of kinases (Homo sapiens, UniProt P08069) (P08069 31-736 limits assumed): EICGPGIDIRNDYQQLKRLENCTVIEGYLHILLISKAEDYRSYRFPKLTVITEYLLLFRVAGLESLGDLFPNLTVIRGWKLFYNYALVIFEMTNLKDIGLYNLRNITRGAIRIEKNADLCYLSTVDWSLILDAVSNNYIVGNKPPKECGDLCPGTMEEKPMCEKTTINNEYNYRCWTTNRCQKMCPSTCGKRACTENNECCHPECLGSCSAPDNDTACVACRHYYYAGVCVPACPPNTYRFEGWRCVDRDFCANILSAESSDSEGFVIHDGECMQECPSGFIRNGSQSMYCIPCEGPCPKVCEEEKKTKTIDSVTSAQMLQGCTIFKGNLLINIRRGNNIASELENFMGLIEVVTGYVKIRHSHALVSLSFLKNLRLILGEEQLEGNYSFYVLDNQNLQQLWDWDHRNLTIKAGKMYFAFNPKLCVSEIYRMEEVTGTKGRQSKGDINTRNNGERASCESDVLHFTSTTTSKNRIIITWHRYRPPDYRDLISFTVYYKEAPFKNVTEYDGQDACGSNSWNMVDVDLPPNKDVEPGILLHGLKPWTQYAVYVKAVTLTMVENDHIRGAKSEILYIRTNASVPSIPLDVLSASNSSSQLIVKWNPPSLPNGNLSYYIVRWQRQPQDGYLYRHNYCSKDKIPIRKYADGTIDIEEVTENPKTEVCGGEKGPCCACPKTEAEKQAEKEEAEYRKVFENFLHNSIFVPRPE
Sequence of broad panel of kinases (Homo sapiens, UniProt P08069) (P08069 741-1367 limits assumed): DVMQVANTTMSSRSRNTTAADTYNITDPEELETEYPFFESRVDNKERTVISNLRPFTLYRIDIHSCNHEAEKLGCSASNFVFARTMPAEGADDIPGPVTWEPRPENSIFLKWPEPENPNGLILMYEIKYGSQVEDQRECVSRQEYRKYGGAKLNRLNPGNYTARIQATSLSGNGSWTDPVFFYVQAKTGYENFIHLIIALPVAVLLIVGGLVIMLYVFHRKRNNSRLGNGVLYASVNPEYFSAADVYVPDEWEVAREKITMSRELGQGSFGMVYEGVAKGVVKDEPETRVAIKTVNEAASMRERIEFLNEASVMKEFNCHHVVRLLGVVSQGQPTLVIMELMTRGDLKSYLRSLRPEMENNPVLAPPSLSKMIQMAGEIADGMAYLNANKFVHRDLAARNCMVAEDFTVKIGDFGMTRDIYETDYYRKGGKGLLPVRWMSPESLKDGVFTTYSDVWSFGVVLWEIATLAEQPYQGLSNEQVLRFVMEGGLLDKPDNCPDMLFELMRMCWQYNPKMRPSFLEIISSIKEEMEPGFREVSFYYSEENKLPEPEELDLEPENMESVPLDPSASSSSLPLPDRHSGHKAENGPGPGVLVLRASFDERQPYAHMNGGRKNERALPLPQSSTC

[12] = molecular target: broad panel of kinases (Homo sapiens, UniProt Q6ZN16); conditions: MAP3K15; 1 μM
[13] = molecular target: broad panel of kinases (Homo sapiens, UniProt O75385); conditions: ULK1; 1 μM
[14] = molecular target: broad panel of kinases (Homo sapiens, UniProt Q96L34); conditions: MARK4; 1 μM
[15] = molecular target: broad panel of kinases (Homo sapiens, UniProt Q9HC98); conditions: NEK6; 1 μM
[16] = molecular target: broad panel of kinases (Homo sapiens, UniProt P36888, R834Q); conditions: FLT3(R834Q); 1 μM
[17] = molecular target: broad panel of kinases (Homo sapiens, UniProt Q9H4A3); conditions: WNK1; 1 μM
[18] = molecular target: broad panel of kinases (Plasmodium falciparum, UniProt P61075)
[19] = molecular target: broad panel of kinases (Homo sapiens, UniProt P15056); conditions: BRAF; 1 μM
[20] = molecular target: broad panel of kinases (Homo sapiens, UniProt Q15349); conditions: 1 μM
[21] = molecular target: broad panel of kinases (Homo sapiens, UniProt Q8WXR4); conditions: MYO3B; 1 μM
[22] = molecular target: broad panel of kinases (Homo sapiens, UniProt P00519, E255K); conditions: ABL1(E255K)-phosphorylated; 1 μM
[23] = molecular target: broad panel of kinases (Homo sapiens, UniProt Q9NRM7); conditions: LATS2; 1 μM
[24] = molecular target: broad panel of kinases (Homo sapiens, UniProt Q9Y2U5); conditions: MAP3K2; 1 μM
[25] = molecular target: broad panel of kinases (Homo sapiens, UniProt Q9UM73, L1196M); conditions: ALK(L1196M); 1 μM
[26] = molecular target: broad panel of kinases (Homo sapiens, UniProt P54753); conditions: EPHB3; 1 μM
Sequence of broad panel of kinases (Homo sapiens, UniProt P54753) (P54753 34-998 limits assumed): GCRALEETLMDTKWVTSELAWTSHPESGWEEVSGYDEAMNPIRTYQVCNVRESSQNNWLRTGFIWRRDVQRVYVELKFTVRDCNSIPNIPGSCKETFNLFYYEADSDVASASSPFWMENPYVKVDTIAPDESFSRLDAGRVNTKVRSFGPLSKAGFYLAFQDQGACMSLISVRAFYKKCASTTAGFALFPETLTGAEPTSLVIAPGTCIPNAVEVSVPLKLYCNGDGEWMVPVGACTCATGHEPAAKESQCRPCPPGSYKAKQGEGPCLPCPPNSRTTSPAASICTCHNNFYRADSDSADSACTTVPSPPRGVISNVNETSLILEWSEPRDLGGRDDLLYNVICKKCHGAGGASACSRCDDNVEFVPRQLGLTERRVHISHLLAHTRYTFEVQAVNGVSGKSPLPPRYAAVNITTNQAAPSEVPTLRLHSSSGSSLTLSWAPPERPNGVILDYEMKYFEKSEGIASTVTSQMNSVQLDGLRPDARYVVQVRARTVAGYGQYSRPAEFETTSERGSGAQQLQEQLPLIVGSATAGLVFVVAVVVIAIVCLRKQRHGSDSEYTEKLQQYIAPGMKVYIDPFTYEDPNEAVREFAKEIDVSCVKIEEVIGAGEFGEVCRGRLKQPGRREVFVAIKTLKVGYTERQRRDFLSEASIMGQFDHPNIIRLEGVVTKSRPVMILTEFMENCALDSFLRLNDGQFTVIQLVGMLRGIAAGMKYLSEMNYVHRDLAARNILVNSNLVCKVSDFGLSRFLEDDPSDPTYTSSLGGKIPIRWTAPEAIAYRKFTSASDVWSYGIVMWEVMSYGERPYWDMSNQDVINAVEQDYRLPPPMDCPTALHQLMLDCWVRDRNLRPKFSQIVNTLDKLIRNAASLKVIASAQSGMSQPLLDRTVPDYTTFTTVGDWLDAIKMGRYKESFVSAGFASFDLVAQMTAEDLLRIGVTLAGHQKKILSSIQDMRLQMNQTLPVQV

[27] = molecular target: broad panel of kinases (Homo sapiens, UniProt P04629); conditions: TRKA; 1 μM
[28] = molecular target: broad panel of kinases (Homo sapiens, UniProt Q59H18); conditions: TNNI3K; 1 μM
[29] = molecular target: broad panel of kinases (Homo sapiens, UniProt O60674); conditions: JAK2(JH1domain-catalytic); 1 μM
[30] = molecular target: broad panel of kinases (Homo sapiens, UniProt Q9BX84); conditions: TRPM6; 1 μM
[31] = molecular target: broad panel of kinases (Homo sapiens, UniProt P19525); conditions: PRKR; 1 μM
Sequence of broad panel of kinases (Homo sapiens, UniProt P19525) (P19525 2-551 limits assumed): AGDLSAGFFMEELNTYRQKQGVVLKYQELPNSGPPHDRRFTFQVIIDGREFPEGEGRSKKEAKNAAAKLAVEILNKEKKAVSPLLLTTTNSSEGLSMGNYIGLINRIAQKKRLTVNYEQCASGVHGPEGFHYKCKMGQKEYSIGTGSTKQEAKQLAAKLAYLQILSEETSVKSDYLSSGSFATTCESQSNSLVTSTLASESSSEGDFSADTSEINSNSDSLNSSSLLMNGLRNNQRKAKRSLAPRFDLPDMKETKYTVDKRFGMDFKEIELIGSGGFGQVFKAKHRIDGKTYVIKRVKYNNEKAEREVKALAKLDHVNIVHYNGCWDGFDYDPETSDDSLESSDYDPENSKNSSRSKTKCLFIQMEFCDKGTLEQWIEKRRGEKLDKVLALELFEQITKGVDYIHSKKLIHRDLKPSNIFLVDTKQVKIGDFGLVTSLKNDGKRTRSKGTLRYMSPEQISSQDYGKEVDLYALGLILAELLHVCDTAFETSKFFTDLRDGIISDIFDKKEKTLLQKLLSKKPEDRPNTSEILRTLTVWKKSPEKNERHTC

[32] = molecular target: broad panel of kinases (Homo sapiens, UniProt P33981); conditions: TTK; 1 μM
[33] = molecular target: broad panel of kinases (Homo sapiens, UniProt P22607); conditions: FGFR3; 1 μM
Sequence of broad panel of kinases (Homo sapiens, UniProt P22607) (P22607 23-806 limits assumed): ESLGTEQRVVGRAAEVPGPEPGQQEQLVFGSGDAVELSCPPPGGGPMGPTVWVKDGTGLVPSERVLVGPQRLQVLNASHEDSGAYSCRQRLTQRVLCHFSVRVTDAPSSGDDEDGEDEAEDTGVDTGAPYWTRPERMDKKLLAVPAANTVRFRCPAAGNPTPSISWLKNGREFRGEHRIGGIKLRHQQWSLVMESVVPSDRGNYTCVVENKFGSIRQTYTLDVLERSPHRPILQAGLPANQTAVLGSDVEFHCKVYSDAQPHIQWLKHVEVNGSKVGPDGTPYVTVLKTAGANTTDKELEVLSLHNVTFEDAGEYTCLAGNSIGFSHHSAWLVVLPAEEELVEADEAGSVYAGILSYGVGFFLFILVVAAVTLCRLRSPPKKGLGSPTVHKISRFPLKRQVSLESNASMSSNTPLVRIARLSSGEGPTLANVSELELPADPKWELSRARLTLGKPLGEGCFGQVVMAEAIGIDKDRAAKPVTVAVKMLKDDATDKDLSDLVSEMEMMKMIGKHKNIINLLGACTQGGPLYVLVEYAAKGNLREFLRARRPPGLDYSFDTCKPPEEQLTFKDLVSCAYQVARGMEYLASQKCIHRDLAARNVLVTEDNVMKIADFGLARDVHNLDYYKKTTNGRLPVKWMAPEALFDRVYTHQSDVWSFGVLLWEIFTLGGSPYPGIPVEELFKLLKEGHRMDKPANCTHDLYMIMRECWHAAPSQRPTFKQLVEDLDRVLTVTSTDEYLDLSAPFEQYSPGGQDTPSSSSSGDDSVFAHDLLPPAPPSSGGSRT

[34] = molecular target: broad panel of kinases (Homo sapiens, UniProt O75582); conditions: 1 μM
[35] = molecular target: broad panel of kinases (Homo sapiens, UniProt Q00526); conditions: CDK3; 1 μM
[36] = molecular target: broad panel of kinases (Homo sapiens, UniProt Q13233); conditions: MAP3K1; 1 μM

Compound | percent of control binding remaining (lower = stronger binding) [1] [%] | percent of control binding remaining (lower = stronger binding) [2] [%] | percent of control binding remaining (lower = stronger binding) [3] [%] | percent of control binding remaining (lower = stronger binding) [4] [%] | percent of control binding remaining (lower = stronger binding) [5] [%] | percent of control binding remaining (lower = stronger binding) [6] [%] | percent of control binding remaining (lower = stronger binding) [7] [%] | percent of control binding remaining (lower = stronger binding) [8] [%] | percent of control binding remaining (lower = stronger binding) [9] [%] | percent of control binding remaining (lower = stronger binding) [10] [%] | percent of control binding remaining (lower = stronger binding) [11] [%] | percent of control binding remaining (lower = stronger binding) [12] [%] | percent of control binding remaining (lower = stronger binding) [13] [%] | percent of control binding remaining (lower = stronger binding) [14] [%] | percent of control binding remaining (lower = stronger binding) [15] [%] | percent of control binding remaining (lower = stronger binding) [16] [%] | percent of control binding remaining (lower = stronger binding) [17] [%] | % change compared to control [18] [%] | percent of control binding remaining (lower = stronger binding) [19] [%] | percent of control binding remaining (lower = stronger binding) ([20]; RSK3(Kin.Dom.1-N-terminal)) [%] | further results
C=CC(=O)N1CC[C@H](Nc2nc(CN3CCOCC3)cc(Nc3ncc(C(=O)Nc4c(C)cccc4C)s3)n2)C1 [Example I-2] | 98 | 96 | 100 | 100 | 100 | 97 | 3.6 | 4.5 | 0.35 | 91 | 100 | 92 | 79 | 91 | 100 | 100 | 100 | 100 | 4.4 | 93 | percent of control binding remaining (lower = stronger binding) ([20]; RSK3(Kin.Dom.2-C-terminal)): 100%; percent of control binding remaining (lower = stronger binding) [21]: 93%; percent of control binding remaining (lower = stronger binding) [22]: 0.45%; percent of control binding remaining (lower = stronger binding) [23]: 100%; percent of control binding remaining (lower = stronger binding) [24]: 96%; percent of control binding remaining (lower = stronger binding) [25]: 72%; percent of control binding remaining (lower = stronger binding) [26]: 0%; percent of control binding remaining (lower = stronger binding) [27]: 98%; percent of control binding remaining (lower = stronger binding) [28]: 16%; percent of control binding remaining (lower = stronger binding) [29]: 65%; percent of control binding remaining (lower = stronger binding) [30]: 61%; percent of control binding remaining (lower = stronger binding) [31]: 89%; percent of control binding remaining (lower = stronger binding) [32]: 100%; percent of control binding remaining (lower = stronger binding) [33]: 99%; percent of control binding remaining (lower = stronger binding) ([34]; RPS6KA5(Kin.Dom.1-N-terminal)): 98%; percent of control binding remaining (lower = stronger binding) ([34]; RPS6KA5(Kin.Dom.2-C-terminal)): 94%; percent of control binding remaining (lower = stronger binding) [35]: 73%; percent of control binding remaining (lower = stronger binding) [36]: 70%
C=CC(=O)N1CC[C@H](Nc2nccc(Nc3ncc(C(=O)Nc4c(C)cccc4C)s3)n2)C1 [Example I-3] | 90 | 94 | 100 | 100 | 99 | 93 | 3.3 | 6.5 | 0.2 | 93 | 100 | 100 | 86 | 80 | 64 | 100 | 95 | 100 | 6.8 | 89 | percent of control binding remaining (lower = stronger binding) ([20]; RSK3(Kin.Dom.2-C-terminal)): 97%; percent of control binding remaining (lower = stronger binding) [21]: 86%; % change compared to control [22]: 0.5%; percent of control binding remaining (lower = stronger binding) [23]: 92%; percent of control binding remaining (lower = stronger binding) [24]: 98%; percent of control binding remaining (lower = stronger binding) [25]: 76%; percent of control binding remaining (lower = stronger binding) [26]: 0%; percent of control binding remaining (lower = stronger binding) [27]: 99%; percent of control binding remaining (lower = stronger binding) [28]: 44%; percent of control binding remaining (lower = stronger binding) [29]: 82%; percent of control binding remaining (lower = stronger binding) [30]: 63%; percent of control binding remaining (lower = stronger binding) [31]: 69%; percent of control binding remaining (lower = stronger binding) [32]: 78%; % change compared to control [33]: 100%; percent of control binding remaining (lower = stronger binding) ([34]; RPS6KA5(Kin.Dom.1-N-terminal)): 88%; percent of control binding remaining (lower = stronger binding) ([34]; RPS6KA5(Kin.Dom.2-C-terminal)): 52%; percent of control binding remaining (lower = stronger binding) [35]: 100%; percent of control binding remaining (lower = stronger binding) [36]: 80%

Source: patent US10844077B2, “Thiazolyl-containing compounds for treating proliferative diseases” (Dana-Farber Cancer Institute, Inc., priority 2014, dated 2020)
